Test results from patent US11214594B2, “Antimicrobial peptide having synergistic antibacterial effect with antibiotics on multidrug resistant bacteria, and use thereof” (priority 2016, dated 2022).
Read-outs that look alike come from different tables or passages of the source. Where a SMILES comes first, the peptide text is derived from it. [ ]: non-standard residue; d: D form.

What was measured:
[1] = system: MDRAB 12035; experiment: MIC of antibiotic during combined treatment with antimicrobial peptide; type: cell-based, Acinetobacter baumannii
Method in brief: (§1)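 Broth microdilution in MH medium; strains were diluted to 2×10^6 CFU per ml before plating. Peptide was serially diluted stepwise at 2:1 starting from its MIC, and MH-diluted antibiotic was then added to determine MIC. The reversed arrangement was also tested.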

[2] = system: E. coli; type: cell-based, Escherichia coli; settings: E. coli
Method in brief: as §1

[3] = system: MDREC 1229; type: cell-based, Escherichia coli
Method in brief: as §1

[4] = system: A. baumannii; experiment: MIC of antimicrobial peptide during combined treatment with antibiotic; type: cell-based, Acinetobacter baumannii
Method in brief: as §1

[5] = system: MDRAB 12035; experiment: as above; type: cell-based, Acinetobacter baumannii
Method in brief: as §1

[6] = peptide treatment concentration 16 μg/ml
[7] = peptide treatment concentration 32 μg/ml
[8] = peptide treatment concentration 64 μg/ml
[9] = linezolid 64 μg/ml (Conc./MIC 1/8)
[10] = linezolid 512 μg/ml (Conc./MIC 1)
[11] = vancomycin 512 μg/ml (Conc./MIC 1/2)
[12] = vancomycin 1024 μg/ml (Conc./MIC 1)
[13] = erythromycin 4 μg/ml (Conc./MIC 1/8)
[14] = erythromycin 8 μg/ml (Conc./MIC 1/4)
[15] = erythromycin 16 μg/ml (Conc./MIC 1/2)
[16] = erythromycin 32 μg/ml (Conc./MIC 1)

CC[C@H](C)[C@H](NC(=O)[C@H](CCCCN)NC(=O)[C@H](Cc1c[nH]c2ccccc12)NC(=O)[C@@H](N)CCCNC(=N)N)C(=O)N[C@@H](Cc1ccccc1)C(=O)N[C@@H](CCCCN)C(=O)N[C@@H](CCCCN)C(=O)N[C@H](C(=O)N[C@H](CC(C)C)C(=O)N[C@@H](CCCCN)C(=O)N[C@@H](CC(C)C)C(=O)N[C@@H](CC(C)C)C(=O)N[C@@H](Cc1c[nH]cn1)C(=O)N[C@@H](CCCCN)C(=O)N[C@@H](Cc1ccccc1)C(=O)N[C@@H](CCCCN)C(=O)N[C@@H](CCCCN)C(=O)N[C@@H](Cc1ccccc1)C(N)=O)[C@@H](C)CC [PapMA-21, RWK IFK KIl KLL HKF KKF-NH2] (H-RWKIFKKI[dL]KLLHKFKKF-NH2; N-terminus assumed)
Linezolid MIC during combined treatment with peptide [1, 6]: 8 µg/mL | Vancomycin MIC during combined treatment with peptide [1, 6]: 16 µg/mL | Erythromycin MIC during combined treatment with peptide [1, 7]: 0 µg/mL | Linezolid MIC during combined treatment with peptide [1, 7]: 0 µg/mL | Vancomycin MIC during combined treatment with peptide [1, 7]: 0 µg/mL | Erythromycin MIC during combined treatment with peptide [1, 8]: 0 µg/mL | Linezolid MIC during combined treatment with peptide [1, 8]: 0 µg/mL | Vancomycin MIC during combined treatment with peptide [1, 8]: 0 µg/mL | Peptide MIC ([2]; with Erythromycin 16 μg/ml (Conc./MIC 1/8)): 4 µg/mL | Peptide MIC ([2]; with Erythromycin 32 μg/ml (Conc./MIC 1/4)): 2 µg/mL | Peptide MIC ([2]; with Erythromycin 64 μg/ml (Conc./MIC 1/2)): 1 µg/mL | Peptide MIC ([2]; with Erythromycin […] (Conc./MIC 1)): 0 µg/mL | Peptide MIC ([2]; with Linezolid 32 μg/ml (Conc./MIC 1/8)): 8 µg/mL | Peptide MIC ([2]; with Linezolid 64 μg/ml (Conc./MIC 1/4)): 4 µg/mL | Peptide MIC ([2]; with Linezolid […] (Conc./MIC 1)): 0 µg/mL | Peptide MIC ([2]; with Linezolid […] (Conc./MIC 1/2)): 2 µg/mL | Peptide MIC ([2]; with Vancomycin 512 μg/ml (Conc./MIC 1/2)): 2 µg/mL | Peptide MIC ([2]; with Vancomycin 1024 μg/ml (Conc./MIC 1)): 0 µg/mL | Peptide MIC ([2]; with Vancomycin […] (Conc./MIC 1/4)): 4 µg/mL | Peptide MIC ([2]; with Vancomycin […] (Conc./MIC 1/8)): 8 µg/mL | Peptide MIC during treatment with antibiotic ([3]; erythromycin 32 μg/ml (Conc./MIC 1/8)): 2 µg/mL | Peptide MIC during treatment with antibiotic ([3]; erythromycin 64 μg/ml (Conc./MIC 1/4)): 2 µg/mL | Peptide MIC during treatment with antibiotic ([3]; erythromycin […] (Conc./MIC 1)): 0 µg/mL | Peptide MIC during treatment with antibiotic ([3]; erythromycin […] (Conc./MIC 1/2)): 1 µg/mL | Peptide MIC during treatment with antibiotic [3, 9]: 8 µg/mL | Peptide MIC during treatment with antibiotic [3, 10]: 0 µg/mL | Peptide MIC during treatment with antibiotic ([3]; linezolid […] (Conc./MIC 1/2)): 1 µg/mL | Peptide MIC during treatment with antibiotic ([3]; linezolid […] (Conc./MIC 1/4)): 4 µg/mL | Peptide MIC during treatment with antibiotic [3, 11]: 2 µg/mL | Peptide MIC during treatment with antibiotic [3, 12]: 2 µg/mL | Peptide MIC during treatment with antibiotic ([3]; vancomycin […] (Conc./MIC 1/4)): 4 µg/mL | Peptide MIC during treatment with antibiotic ([3]; vancomycin […] (Conc./MIC 1/8)): 8 µg/mL | Peptide MIC during treatment with erythromycin [4, 13]: 8 µg/mL | Peptide MIC during treatment with erythromycin [4, 14]: 4 µg/mL | Peptide MIC during treatment with erythromycin [4, 15]: 2 µg/mL | Peptide MIC during treatment with erythromycin [4, 16]: 0 µg/mL | Peptide MIC during treatment with linezolid ([4]; linezolid 32 μg/ml (Conc./MIC 1/8)): 4 µg/mL | Peptide MIC during treatment with linezolid ([4]; linezolid 64 μg/ml (Conc./MIC 1/4)): 4 µg/mL | Peptide MIC during treatment with linezolid ([4]; linezolid […] (Conc./MIC 1)): 0 µg/mL | Peptide MIC during treatment with linezolid ([4]; linezolid […] (Conc./MIC 1/2)): 1 µg/mL | Peptide MIC during treatment with vancomycin [4, 11]: 0.25 µg/mL | Peptide MIC during treatment with vancomycin [4, 12]: 0 µg/mL | Peptide MIC during treatment with vancomycin ([4]; vancomycin […] (Conc./MIC 1/4)): 0.5 µg/mL | Peptide MIC during treatment with vancomycin ([4]; vancomycin […] (Conc./MIC 1/8)): 4 µg/mL | Peptide MIC during treatment with erythromycin [5, 13]: 8 µg/mL | Peptide MIC during treatment with erythromycin [5, 14]: 8 µg/mL | Peptide MIC during treatment with erythromycin [5, 15]: 4 µg/mL | Peptide MIC during treatment with erythromycin [5, 16]: 0 µg/mL | Peptide MIC during treatment with linezolid [5, 9]: 4 µg/mL | Peptide MIC during treatment with linezolid [5, 10]: 0 µg/mL | Peptide MIC during treatment with linezolid ([5]; linezolid […] (Conc./MIC 1/2)): 1 µg/mL | Peptide MIC during treatment with linezolid ([5]; linezolid […] (Conc./MIC 1/4)): 4 µg/mL | Peptide MIC during treatment with vancomycin [5, 11]: 2 µg/mL | Peptide MIC during treatment with vancomycin [5, 12]: 1 µg/mL | Peptide MIC during treatment with vancomycin ([5]; vancomycin […] (Conc./MIC 1/4)): 4 µg/mL | Peptide MIC during treatment with vancomycin ([5]; vancomycin […] (Conc./MIC 1/8)): 4 µg/mL
